Results on 36 compounds are retold here after patent publication US10975084B2, “KDM5 inhibitors” (Merck Sharp & Dohme Corp., priority 2016, dated 2021).

For this assay, the target named is KDM5B (Homo sapiens (Human), UniProt Q9UGL1). The assay can be described thus: KDM5B TR-FRET Enzyme Activity Assay. To be noted: LANCE TR-FRET; 5 nM full-length recombinant KDM5B; ten point titration 100000 nM to 5.08 nM. It is filed as biochemical. The gist of the method:
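Full-length KDM5B from Sf21 cells (5 nM) was preincubated 30 min with compound in HEPES pH 7.3 buffer with ascorbate and 2 μM Fe(II). Reaction with 500 nM biotinylated H3K4Me3 peptide and 500 nM α-ketoglutarate ran 60 min. Product was detected by TR-FRET (Eu-anti-H3K4Me1-2/streptavidin-Dylight 650, 665/615 ratio); IC50 came from a 4-parameter fit.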
For orientation: TR-FRET usually uses a lanthanide donor and a delayed reading to cut background.

SMILES strings stand for the structures. pIC50: −log10 of the molar value.

Chain of KDM5B (Q9UGL1 whole entry): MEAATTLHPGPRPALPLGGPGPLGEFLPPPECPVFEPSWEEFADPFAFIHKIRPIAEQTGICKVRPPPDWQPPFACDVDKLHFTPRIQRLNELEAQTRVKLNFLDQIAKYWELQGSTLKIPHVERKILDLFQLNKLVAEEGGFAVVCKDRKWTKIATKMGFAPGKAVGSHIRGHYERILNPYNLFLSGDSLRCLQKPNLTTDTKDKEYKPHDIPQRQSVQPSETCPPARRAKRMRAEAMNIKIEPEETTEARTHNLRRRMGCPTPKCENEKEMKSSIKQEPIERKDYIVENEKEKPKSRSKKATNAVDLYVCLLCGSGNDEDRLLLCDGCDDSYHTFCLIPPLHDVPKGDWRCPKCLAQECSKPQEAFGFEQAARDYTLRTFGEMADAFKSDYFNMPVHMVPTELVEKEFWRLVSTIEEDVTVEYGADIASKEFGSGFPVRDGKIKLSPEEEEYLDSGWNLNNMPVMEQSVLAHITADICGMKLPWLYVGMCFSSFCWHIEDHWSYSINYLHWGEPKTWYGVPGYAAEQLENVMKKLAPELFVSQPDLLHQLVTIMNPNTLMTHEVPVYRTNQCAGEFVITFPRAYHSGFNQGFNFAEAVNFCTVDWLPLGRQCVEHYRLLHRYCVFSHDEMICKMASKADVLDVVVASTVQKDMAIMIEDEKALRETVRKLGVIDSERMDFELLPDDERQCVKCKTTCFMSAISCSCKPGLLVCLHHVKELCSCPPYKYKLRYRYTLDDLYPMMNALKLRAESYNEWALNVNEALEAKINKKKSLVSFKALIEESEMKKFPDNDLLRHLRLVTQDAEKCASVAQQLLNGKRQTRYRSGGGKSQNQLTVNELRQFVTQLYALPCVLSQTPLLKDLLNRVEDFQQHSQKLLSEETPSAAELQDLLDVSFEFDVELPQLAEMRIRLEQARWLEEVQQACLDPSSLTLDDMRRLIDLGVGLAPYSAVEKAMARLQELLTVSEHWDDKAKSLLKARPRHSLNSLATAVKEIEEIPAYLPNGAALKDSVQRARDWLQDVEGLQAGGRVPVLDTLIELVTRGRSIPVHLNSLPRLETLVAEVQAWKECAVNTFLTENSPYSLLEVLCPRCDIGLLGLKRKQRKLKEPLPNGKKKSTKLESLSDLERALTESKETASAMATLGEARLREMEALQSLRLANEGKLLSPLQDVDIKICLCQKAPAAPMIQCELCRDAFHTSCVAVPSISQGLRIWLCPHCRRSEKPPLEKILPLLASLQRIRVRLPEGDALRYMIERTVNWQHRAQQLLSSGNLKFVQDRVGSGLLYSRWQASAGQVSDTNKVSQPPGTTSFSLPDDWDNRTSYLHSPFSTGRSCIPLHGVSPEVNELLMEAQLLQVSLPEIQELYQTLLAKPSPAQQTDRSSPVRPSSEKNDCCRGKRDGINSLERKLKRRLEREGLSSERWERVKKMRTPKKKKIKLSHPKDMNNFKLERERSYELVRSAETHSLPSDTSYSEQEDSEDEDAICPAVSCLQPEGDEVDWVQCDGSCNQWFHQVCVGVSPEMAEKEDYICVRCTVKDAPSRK

What is called pIC50 is the IC50 on a negative log10 scale, so that one unit is a factor of ten. With `CC(C)c1c(-c2cc3ccccc3n2C)[nH]c2ncnn2c1=O` [Example 11-77, 6-(1-methylethyl)-5-(1-methyl-1H-indol-2-yl)[1,2,4]triazolo[1,5-a]pyrimidin-7(4H)-one], the pIC50 was 5.90. As for `CC(C)c1c(-c2ccc3c(cnn3C)c2)[nH]c2ncnn2c1=O` [Example 11-78, 6-(1-methylethyl)-5-(1-methyl-1H-indazol-5-yl)[1,2,4]triazolo[1,5-a]pyrimidin-7(4H)-one], the figure is 7.98; as for `COC(=O)c1ccc(-c2[nH]c3ncnn3c(=O)c2C(C)C)cc1` [Example 11-79, methyl 4-[6-(1-methylethyl)-7-oxo-4,7-dihydro[1,2,4]triazolo[1,5-a]pyrimidin-5-yl]benzoate], 7.71; as for `COC(=O)c1cccc(-c2[nH]c3ncnn3c(=O)c2C(C)C)c1` [Example 11-80, methyl 3-[6-(1-methylethyl)-7-oxo-4,7-dihydro[1,2,4]triazolo[1,5-a]pyrimidin-5-yl]benzoate], 7.47. With `CC(C)c1c(C2=CC(C)(C)OC(C)(C)C2)[nH]c2ncnn2c1=O` [Example 11-81, 6-(1-methylethyl)-5-(2,2,6,6-tetramethyl-3,6-dihydro-2H-pyran-4-yl)[1,2,4]triazolo[1,5-a]pyrimidin-7(4H)-one] the figure was 6.51; with `CC(C)c1c(-c2ccc(-n3cccn3)cc2)[nH]c2ncnn2c1=O` [Example 11-82, 6-(1-methylethyl)-5-[4-(1H-pyrazol-1-yl)phenyl][1,2,4]triazolo[1,5-a]pyrimidin-7(4H)-one], 8.06. For the compound `CC(C)c1c(-c2cccc(-n3cccn3)c2)[nH]c2ncnn2c1=O` [Example 11-83, 6-(1-methylethyl)-5-[3-(1H-pyrazol-1-yl)phenyl][1,2,4]triazolo[1,5-a]pyrimidin-7(4H)-one], the pIC50 was 7.67.

Regarding `CC(C)c1c(-c2ccc(C(F)(F)F)cc2)[nH]c2ncnn2c1=O` [Example 11-84, 6-(1-methylethyl)-5-[4-(trifluoromethyl)-phenyl][1,2,4]triazolo[1,5-a]pyrimidin-7(4H)-one], the pIC50 was 7.17. In the case of `CC(C)c1c(-c2cccc(C(F)(F)F)c2)[nH]c2ncnn2c1=O` [Example 11-85, 6-(1-methylethyl)-5-[3-(trifluoromethyl)phenyl] [1,2,4]triazolo[1,5-a]pyrimidin-7(4H)-one], the pIC50 was 7.38. As for `CC(C)c1c(-c2ccc(C(=O)N(C)C)cc2)[nH]c2ncnn2c1=O` [Example 11-86, N,N-dimethyl-4-[6-(1-methylethyl)-7-oxo-4,7-dihydro[1,2,4]triazolo[1,5-a]pyrimidin-5-yl]benzamide], the pIC50 is 7.90.

For `CC(C)c1c(-c2cc(C(F)(F)F)nn2C)[nH]c2ncnn2c1=O` [Example 11-87, 6-(1-methylethyl)-5-[1-methyl-3-(trifluoromethyl)-1H-pyrazol-5-yl][1,2,4]triazolo[1,5-a]pyrimidin-7(4H)-one], the pIC50 is 5.91. For `CC(C)c1c(-c2ccc(-c3ccncc3)cc2)[nH]c2ncnn2c1=O` [Example 11-88, 6-(1-methylethyl)-5-(4-pyridin-4-ylphenyl)[1,2,4]triazolo[1,5-a]pyrimidin-7(4H)-one], the pIC50 was 8.07.

For `CC(C)c1c(-c2ccc3ncn(C4CC4)c3c2)[nH]c2ncnn2c1=O` [Example 11-89, 5-(1-cyclopropyl-1H-benzimidazol-6-yl)-6-(1-methylethyl)[1,2,4]triazolo[1,5-a]pyrimidin-7(4H)-one], the pIC50 was 7.67. In the case of `CC(C)c1c(-c2ccc(-c3nccn3C)cc2)[nH]c2ncnn2c1=O` [Example 11-90, 6-(1-methylethyl)-5-[4-(1-methyl-1H-imidazol-2-yl)phenyl][1,2,4]triazolo[1,5-a]pyrimidin-7(4H)-one], the pIC50 was 8.14. As for `CC(C)c1c(-c2ccnn2Cc2ccccc2)[nH]c2ncnn2c1=O` [Example 11-91, 5-(1-benzyl-1H-pyrazol-5-yl)-6-(1-methylethyl)[1,2,4]triazolo[1,5-a]pyrimidin-7(4H)-one], the figure is 6.20. As for `COCC(C)(C)n1cc(-c2[nH]c3ncnn3c(=O)c2C(C)C)cn1` [Example 11-92, 5-[1-(2-methoxy-1,1-dimethylethyl)-1H-pyrazol-4-yl]-6-(1-methylethyl)[1,2,4]triazolo[1,5-a]pyrimidin-7(4H)-one], the pIC50 is 8.28.

As to `CC(C)c1c(-c2ccc(N3CCN(C(C)C)CC3)cc2)[nH]c2ncnn2c1=O` [Example 11-93, 6-(1-methylethyl)-5-{4-[4-(1-methylethyl)piperazin-1-yl]phenyl}[1,2,4]triazolo[1,5-a]pyrimidin-7(4H)-one], the pIC50 was 7.81. As for `CC(C)c1c(-c2ccc(N3CCCC3)cc2)[nH]c2ncnn2c1=O` [Example 11-94, 6-(1-methylethyl)-5-(4-pyrrolidin-1-ylphenyl)[1,2,4]triazolo[1,5-a]pyrimidin-7(4H)-one], the figure is 7.70; as for `CC(C)c1c(-c2ccc(-n3ccnn3)cc2)[nH]c2ncnn2c1=O` [Example 11-95, 6-(1-methylethyl)-5-[4-(1H-1,2,3-triazol-1-yl)phenyl][1,2,4]triazolo[1,5-a]pyrimidin-7(4H)-one], 8.07; as for `CC(C)c1c(-c2ccc(N3CCS(=O)(=O)CC3)cc2)[nH]c2ncnn2c1=O` [Example 11-96, 5-[4-(1,1-dioxidothiomorpholin-4-yl)phenyl]-6-(1-methylethyl)[1,2,4]triazolo[1,5-a]pyrimidin-7(4H)-one], 7.87. As for `CC(C)c1c(-c2ccc(-n3nccn3)cc2)[nH]c2ncnn2c1=O` [Example 11-97, 6-(1-methylethyl)-5-[4-(2H-1,2,3-triazol-2-yl)phenyl][1,2,4]triazolo[1,5-a]pyrimidin-7(4H)-one], the figure is 7.49; as for `CC(C)c1c(-c2ccc(-n3cccn3)cc2F)[nH]c2ncnn2c1=O` [Example 11-98, 5-[2-fluoro-4-(1H-pyrazol-1-yl)phenyl]-6-(1-methylethyl)[1,2,4]triazolo[1,5-a]pyrimidin-7(4H)-one], 6.91; as for `CC(C)c1c(-c2ccc(N)cc2)[nH]c2ncnn2c1=O` [Example 11-99, 5-(4-aminophenyl)-6-(1-methylethyl)[1,2,4]triazolo[1,5-a]pyrimidin-7(4H)-one], 7.48. On to `CC(C)c1c(-c2ccc(NS(C)(=O)=O)cc2)[nH]c2ncnn2c1=O` [Example 11-100, N-{4-[6-(1-methylethyl)-7-oxo-4,7-dihydro[1,2,4]triazolo[1,5-a]pyrimidin-5-yl]phenyl}methanesulfonamide], for which the pIC50 is 7.70. On to `CC(C)c1c(-c2ccc3c(c2)CCC(=O)N3)[nH]c2ncnn2c1=O` [Example 11-101, 6-[6-(1-methylethyl)-7-oxo-4,7-dihydro[1,2,4]triazolo[1,5-a]pyrimidin-5-yl]-3,4-dihydroquinolin-2(1H)-one], for which the pIC50 is 8.12. `CC(C)c1c(-c2ccc3c(c2)OCC(=O)N3)[nH]c2ncnn2c1=O` [Example 11-102, 7-[6-(1-methylethyl)-7-oxo-4,7-dihydro[1,2,4]triazolo[1,5-a]pyrimidin-5-yl]-2H-1,4-benzoxazin-3(4H)-one]: the negative-log IC50 (pIC50) is 7.75. As for `CC(C)c1c(-c2ccc(N(C)C)cc2)[nH]c2ncnn2c1=O` [Example 11-103, 5-[4-(dimethylamino)phenyl]-6-(1-methylethyl)[1,2,4]triazolo[1,5-a]pyrimidin-7(4H)-one], the figure is 7.43; as for `CNc1ccc(-c2[nH]c3ncnn3c(=O)c2C(C)C)cc1` [Example 11-104, 5-[4-(methylamino)phenyl]-6-(1-methylethyl)[1,2,4]triazolo[1,5-a]pyrimidin-7(4H)-one], 7.36; as for `CC(C)c1c(-c2ccc3c(c2)OCCN3C)[nH]c2ncnn2c1=O` [Example 11-105, 5-(4-methyl-3,4-dihydro-2H-1,4-benzoxazin-7-yl)-6-(1-methylethyl)[1,2,4]triazolo[1,5-a]pyrimidin-7(4H)-one], 7.47. As for `CC(C)c1c(-c2ccc(N3CCN(C)CC3)cc2)[nH]c2ncnn2c1=O` [Example 11-106, 6-(1-methylethyl)-5-[4-(4-methylpiperazin-1-yl)phenyl][1,2,4]triazolo[1,5-a]pyrimidin-7(4H)-one], the figure is 7.78; as for `CC(C)c1c(-c2cnn(C(C)(C)CO)c2)[nH]c2ncnn2c1=O` [Example 11-107, 5-[1-(2-hydroxy-1,1-dimethylethyl)-1H-pyrazol-4-yl]-6-(1-methylethyl)[1,2,4]triazolo[1,5-a]pyrimidin-7(4H)-one], 8.29. As for `CC(C)c1c(-c2ccc(CN3CCOCC3)s2)[nH]c2ncnn2c1=O` [Example 11-108, 6-(1-methylethyl)-5-[5-(morpholin-4-ylmethyl)thiophen-2-yl][1,2,4]triazolo[1,5-a]pyrimidin-7(4H)-one], the figure is 8.29. On to `CC(C)c1c(-c2cnn(C3CCC3)c2)[nH]c2ncnn2c1=O` [Example 11-109, 5-(1-cyclobutyl-1H-pyrazol-4-yl)-6-(1-methylethyl)[1,2,4]triazolo[1,5-a]pyrimidin-7(4H)-one], for which the negative-log IC50 (pIC50) was 8.29. With `CC(C)c1c(-c2cnn(Cc3cccs3)c2)[nH]c2ncnn2c1=O` [Example 11-110, 6-(1-methylethyl)-5-[1-(thiophen-2-ylmethyl)-1H-pyrazol-4-yl][1,2,4]triazolo[1,5-a]pyrimidin-7(4H)-one] the figure was 8.17; with `CC(C)c1c(-c2cnn(CCO)c2)[nH]c2ncnn2c1=O` [Example 11-111, 5-[1-(2-hydroxyethyl)-1H-pyrazol-4-yl]-6-(1-methylethyl)[1,2,4]triazolo[1,5-a]pyrimidin-7(4H)-one], 7.93; with `CC(C)c1c(-c2cnn3c2CCC3)[nH]c2ncnn2c1=O` [Example 11-112, 5-(5,6-dihydro-4H-pyrrolo[1,2-b]pyrazol-3-yl)-6-(1-methylethyl)[1,2,4]triazolo[1,5-a]pyrimidin-7(4H)-one], 7.29.
